The target of assay [1] is T1, SARS-CoV-2 Mpro (Severe acute respiratory syndrome coronavirus 2, UniProt P0DTD1). Description: biochemical. The settings on record: read-out: Mpro % inhibition at 10 µM.
The target of assay [2] is T1, SARS-CoV-2 Mpro. Description: fluorogenic quenched peptide cleavage assay. The assay is classed as biochemical.
Assay [3] has as its target T1, SARS-CoV-2 Mpro. The assay can be described thus: biochemical. The settings on record: read-out: % inhibition at 10 μM.

SMILES strings stand for the structures. Read-outs that look alike come from different tables or passages of the source.

With `Cc1ccc(S(=O)(=O)n2cc(CNC3=CC(=O)c4ccccc4C3=O)nn2)cc1` [compound 319], the inhibition at 10 µM at SARS-CoV-2 Mpro [1] came to 5 ± 2%. Same read-out and setting: as for `Cc1ccc(S(=O)(=O)n2cc(CNC3=C(Cl)C(=O)c4ccccc4C3=O)nn2)cc1` [compound 320, 320], the figure is 11 ± 6%. For the compound `CC1(C)OC2=C(CC1Br)C(=O)C(=NNc1ccccc1)c1ccccc12` (stereo not shown) [compound 666, 666], at SARS-CoV-2 Mpro [1], the inhibition at 10 µM stood at 5 ± 5%. Compound `COc1ccc(SC2=C(Sc3ccc(OC)cc3)C(=O)c3ccccc3C2=O)cc1` [compound 382, 382] gave an IC50 against SARS-CoV-2 Mpro [2] of 410 ± 20 nM. Take `O=C1C(Sc2ccccc2)=C(Sc2ccccc2)C(=O)c2ccccc21` [compound 379, 379]: the IC50 on SARS-CoV-2 Mpro [2] is 630 ± 40 nM. On to `CC1(C)OC2=C(C(=O)C(=O)c3ccccc32)C1n1cc(CNC2=CC(=O)c3ccccc3C2=O)nn1` (stereo not shown) [compound 189], for which the inhibition at 10 µM at SARS-CoV-2 Mpro [1] came to 25 ± 2%. Same read-out and setting: to `COc1ccc(SC2=C(Sc3ccc(OC)cc3)C(=O)c3ccccc3C2=O)cc1` [compound 382] belongs 100%. With `Cc1ccc(S(=O)(=O)c2cccc3c2C(=O)c2ccccc2C3=O)cc1` [compound 477, 477], the inhibition at 10 µM on SARS-CoV-2 Mpro [1] stood at 5 ± 2%. For `CC(=O)c1ccc(N(Cc2cn(S(=O)(=O)c3ccc(C)cc3)nn2)C2=CC(=O)c3ccccc3C2=O)cc1` [compound 318, 318], the inhibition at 10 µM at SARS-CoV-2 Mpro [3] worked out at 45 ± 13%. With `O=C1C(Sc2ccc(Br)cc2)=C(Sc2ccc(Br)cc2)C(=O)c2ccccc21` [compound 380, 380], the inhibition at 10 µM at SARS-CoV-2 Mpro [1] turned out to be 12 ± 3%. On to `CC1(C)CC2=C(O1)c1ccccc1C(=NNc1ccccc1)C2=O` [compound 673, 673], for which the inhibition at 10 µM at SARS-CoV-2 Mpro [1] was found to be 8 ± 3%. Turning to `CC1(C)OC2=C(C(=O)C(=O)c3ccccc32)C1n1cc(CNC2=C(Br)C(=O)c3ccccc3C2=O)nn1` (stereo not shown) [compound 191], the inhibition at 10 µM at SARS-CoV-2 Mpro [1] was 55 ± 3%. For the compound `CC(=O)NC1=CC(=O)c2cccc(O)c2C1=O` [compound 414, 414], at SARS-CoV-2 Mpro [1], the inhibition at 10 µM was determined as 29 ± 2%. In the case of `CC(=O)NC1=CC(=O)c2c(cccc2[N+](=O)[O-])C1=O` [compound 415, 415], the inhibition at 10 µM at SARS-CoV-2 Mpro [1] came to 100%. Moreover, half-maximal inhibition at SARS-CoV-2 Mpro [2] (IC50) required 5000 ± 200 nM. On to `Cc1ccc(S(=O)(=O)n2cc(CNC3=C(Br)C(=O)c4ccccc4C3=O)nn2)cc1` [compound 321, 321], for which the inhibition at 10 µM at SARS-CoV-2 Mpro [1] worked out at 40 ± 8%. On the same count and under the same terms, to `Cc1ccc(S(=O)(=O)n2cc(CN(C3=CC(=O)c4ccccc4C3=O)c3ccc(Br)cc3)nn2)cc1` [compound 314] belongs 36 ± 2%. Still for that read-out and setting: to `O=C1C(Sc2ccccc2)=C(Sc2ccccc2)C(=O)c2ccccc21` [compound 379] belongs 100%; to `CC1(C)OC2=C(C(=O)C(=O)c3ccccc32)C1n1cc(-c2ccccc2)nn1` (stereo not shown) [compound 159], 35 ± 1%.

These data come from publication doi:10.1101/2022.01.05.475095v1 (biorxiv, 2022).
